Source: US10350210B2, “EGFR and ALK dual inhibitor” (PRECEDO PHARMACEUTICALS CO., LTD, priority 2015, dated 2019)

What was measured:
BaF3 = test: Cell growth (Cell Titer-Glo viability), BaF3; type: cell-based; details: BaF3 mouse primary B cell, 72 hrs
A431 = test: Growth of cancer cells (Cell Titer-Glo viability), A431; type: cell-based; details: Homo sapiens, A-431; A431 (wild-type EGFR), 72 hrs; read-out: GI50
NCI-H2122 = test: Growth of cancer cells (Cell Titer-Glo viability), NCI-H2122; type: cell-based; details: Homo sapiens; NCI-H2122 (wild-type EGFR), 72 hrs
A549 = test: Growth of cancer cells (Cell Titer-Glo viability), A549; type: cell-based; details: Homo sapiens; A549 (wild-type EGFR), 72 hrs
H1975 = test: Effect on cell apoptosis (Western Blot, PARP and Caspase 3 cleavage), H1975; type: cell-based, human; details: H1975 (EGFR L858R/T790M), 24 hours
Source text: In order to confirm whether the death of cells is through apoptosis or necrosis after administration of drugs, non-small cell lung cancer cell A549 (expressing wild-type EGFR gene), non-small cell lung cancer cell line H1975 (expressing EGFR L858R/T790M double mutant gene), non-small cell lung cancer cell line H3255 (expressing EGFR L858R mutant gene), non-small cell lung cancer cell line H3122 (expressing ALK gene) cell line, and non-small cell lung cancer cell line PC-9 (expressing EGFR delE746_A750 mutant gene) were tested for effect of Compound 1 on cleavage of poly ADP-ribose polymerase PARP which is a DNA repair enzyme and Caspase 3, which were closely related to cell apoptosis. […] Western Blot was used to detect the effect of various concentrations of drugs at various time points on cleavage of poly ADP-ribose polymerase PARP which is a DNA repair enzyme and Caspase 3.

NCI-H3122 = test: Effect on cell cycle (PI staining, flow cytometer), NCI-H3122; type: cell-based, human; details: NCI-H3122 (ALK gene), 24 hours
Source text: In order to study which growth phase the cell was halted after administration of the drugs, five cell lines including non-small cell lung cancer cell line A549 (expressing wild-type EGFR gene), non-small cell lung cancer cell line H1975 (expressing EGFR L858R/T790M double mutant gene), non-small cell Lung cancer cell line PC-9 (expressing EGFR delE746_A750 mutant gene), non-small cell lung cancer cell line H3255 (expressing EGFR L858R mutant gene) and non-small cell lung cancer cell NCI-H3122 (expressing ALK gene) were tested for effect of Compound 1 on cell cycle distribution. Two cell lines including non-small cell lung cancer cell NCI-H3122 (expressing ALK gene) and non-small cell lung cancer cell H1975 (expressing EGFR L858R/T790M double mutant gene) were tested for effect of Compound 10 on cell cycle distribution. […]

BaF3-TEL-EGFR-T790M = test: Cell growth (Cell Titer-Glo viability), BaF3-TEL-EGFR-T790M; type: cell-based; details: Mus musculus; BaF3-TEL-EGFR-T790M (EGFR T790M mutant kinase), 72 hrs
Summary of the method: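 Proliferation assay: IL-3-independent BaF3 lines stably expressing TEL-fused human kinase (retroviral MSCV-Puro), plus EGFR-mutant NSCLC lines (HCC827 del19, NCI-H3255 L858R). Read-out: CellTiter-Glo luminescence of viable cells.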

## C=CC(=O)Nc1cc(Nc2ncc(Cl)c(Nc3ccccc3S(=O)(=O)C(C)C)n2)c(OC)cc1N1CCCN(C)CC1 [Compound 10, N-(5-(5-chloro-4-(2-(isopropylsulfonyl)phenylamino)pyrimidin-2-ylamino)-4-methoxy-2-(4-methyl-1,4-homopiperazin-1-yl)phenyl)acrylamide]
BaF3
  GI50: 1200 nM
A431
  GI50: 170 nM
NCI-H2122
  GI50: 190 nM
A549
  GI50: 510 nM
H1975
  concentration at which cleavage of PARP and Caspase 3 could be observed: 0.3 µM
NCI-H3122
  effect on cell cycle distribution: halt the cells in G0-G1 phase

## C=CC(=O)Nc1cc(Nc2ncc(Cl)c(Nc3ccccc3S(=O)(=O)C(C)C)n2)c(OC)cc1N1CCN(CC)CC1 [Compound 1, N-(5-(5-chloro-4-(2-(isopropylsulfonyl)phenylamino)pyrimidin-2-ylamino)-2-(4-ethylpiperazin-1-yl)-4-methoxyphenyl)acrylamide]
BaF3
  GI50: 1400 nM
BaF3-TEL-EGFR-T790M
  GI50: 32 nM
A431
  GI50: 62 nM
NCI-H2122
  GI50: 9 nM
A549
  GI50: 410 nM
H1975
  concentration at which cleavage of PARP and Caspase 3 could be observed: 0.3 µM
NCI-H3122
  effect on cell cycle distribution: halt the cells in G0-G1 phase
